Laboratory results published in patent publication US11364248B2 (AMGEN INC., priority 2017, dated 2022).

Columns and labels:
[1] = target: Mcl-1/Bim interaction (Homo sapiens (Human), UniProt Q07820); test: Cell Free Mcl-1: Bim Affinity Assay (Mcl-1 HTRF); type: binding; conditions: TR-FRET, recombinant human Mcl-1(171-327), biotin-Bim(51-76); read-out: Mel-1 HTRF IC50
Summary of the method: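 TR-FRET competition assay: 0.1 nM His-tagged human Mcl-1(171-327) and 0.05 nM biotin-Bim(51-76) were pre-incubated 60 min with compound in 20 mM Hepes pH 7.5, 150 mM NaCl, Brij35, 1 mM DTT, then with Eu-anti-His/streptavidin-Xlent overnight. The 665/620 nm ratio was fitted by four-parameter model to IC50 (duplicates).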

[2] = tested on: OPM-2; test: Cell Viability Assay (OPM-2 10 FBS); type: cell-based, human; conditions: OPM-2 cells, 16 h, CellTiter-Glo, read-out: OPM-2 10% FBS IC50 IP
Summary of the method: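 OPM-2 myeloma cells seeded at 3000 cells/well in RPMI 1640 with 10% FBS and exposed to serially diluted compounds for 16 h at 37° C., 5% CO2.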

Mcl-1/Bim interaction, sequence (Q07820 171-327): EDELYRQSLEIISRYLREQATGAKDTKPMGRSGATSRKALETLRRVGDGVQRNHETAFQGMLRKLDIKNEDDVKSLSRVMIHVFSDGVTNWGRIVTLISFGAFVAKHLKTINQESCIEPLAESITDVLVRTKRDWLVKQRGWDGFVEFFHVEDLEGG

IC50 [1] [nM]	Structure (SMILES)	IC50 [2] [nM]
5.71	COC[C@H]1[C@@H](C)CCC[C@H]([C@H]2OC[C@@H](N(C)C)CO2)[C@@H]2CC[C@H]2CN2C[C@@]3(CCCc4cc(Cl)ccc43)COc3ccc(cc32)C(=O)NS1(=O)=O [Example 87, (1S,3′R,6′R,7′S,11′S,12′R)-6-chloro-7′-(cis-5-(dimethylamino)-1,3-dioxan-2-yl)-12′-(methoxymethyl)-11′-methyl-3,4-dihydro-2H,15′H-spiro[naphthalene-1,22′-[20]oxa[13]thia[1,14]diazatetracyclo [14.7.2.0~3,6~.0~19,24~]pentacosa[16,18,24]trien]-15′-one 13′,13′-dioxide]	735
0.645	C[C@@H]1[C@@H](C)CCC[C@H]([C@H]2OC[C@H](N)CO2)[C@@H]2CC[C@H]2CN2C[C@@]3(CCCc4cc(Cl)ccc43)COc3ccc(cc32)C(=O)NS1(=O)=O (relative stereo) [Example 17]	194
0.492	C[C@@H]1[C@@H](C)CCC[C@@H]([C@H]2OC[C@@H](N3CC(F)C3)CO2)[C@@H]2CC[C@H]2CN2C[C@@]3(CCCc4cc(Cl)ccc43)COc3ccc(cc32)C(=O)NS1(=O)=O (single isomer, unassigned) [Example 50]	126
7.99	CN[C@H]1CO[C@@H]([C@H]2CCC[C@H](C)[C@@H](C)S(=O)(=O)NC(=O)c3ccc4c(c3)N(C[C@@H]3CC[C@H]32)C[C@@]2(CCCc3cc(Cl)ccc32)CO4)OC1 (relative stereo) [Example 41]	7070
0.59	CN[C@H]1CO[C@H]([C@H]2CCC[C@H](C)[C@@H](C)S(=O)(=O)NC(=O)c3ccc4c(c3)N(C[C@@H]3CC[C@H]32)C[C@@]2(CCCc3cc(Cl)ccc32)CO4)OC1 [Example 48, (1S,3′R,6′R,7′S,11′S,12′R)-6-chloro-11′,12′-dimethyl-7′-(trans-5-(methylamino)-1,3-dioxan-2-yl)-3,4-dihydro-2H,15′H-spiro[naphthalene-1,22′-[20]oxa[13]thia[1,14]diazatetracyclo [14.7.2.0~3,6~.0~19,24~]pentacosa[16,18,24]trien]-15′-one 13′,13′-dioxide]	184

The remaining lines, values behind:

Structure (SMILES)	IC50 [1] [nM]	IC50 [2] [nM]
C[C@@H]1[C@@H](C)CCCC(C2OCC(N)(CO)CO2)[C@@H]2CC[C@H]2CN2C[C@@]3(CCCc4cc(Cl)ccc43)COc3ccc(cc32)C(=O)NS1(=O)=O (single isomer, unassigned) [Example 80]	0.382	240
C[C@@H]1[C@@H](C)CCC[C@H]([C@H]2OC[C@](N)(CO)CO2)[C@@H]2CC[C@H]2CN2C[C@@]3(CCCc4cc(Cl)ccc43)COc3ccc(cc32)C(=O)NS1(=O)=O [Example 40, (1S,3′R,6′R,7′S,11′S,12′R)-7′-(cis-5-amino-5-(hydroxymethyl)-1,3-dioxan-2-yl)-6-chloro-11′,12′-dimethyl-3,4-dihydro-2H,15′H-spiro[naphthalene-1,22′-[20]oxa[13]thia[1,14]diazatetracyclo [14.7.2.0~3,6~.0~19,24~]pentacosa[16,18,24]trien]-15′-one 13′,13′-dioxide]	0.577	1560
CCN(C)[C@H]1CO[C@@H]([C@H]2CCC[C@H](C)[C@@H](C)S(=O)(=O)NC(=O)c3ccc4c(c3)N(C[C@@H]3CC[C@H]32)C[C@@]2(CCCc3cc(Cl)ccc32)CO4)OC1 (relative stereo) [Example 46]	0.34	47
C[C@@H]1[C@@H](C)CCC[C@H]([C@H]2OC[C@@H](N3CCCC3)CO2)[C@@H]2CC[C@H]2CN2C[C@@]3(CCCc4cc(Cl)ccc43)COc3ccc(cc32)C(=O)NS1(=O)=O [Example 22, (1S,3′R,6′R,7′S,11′S,12′R)-6-chloro-11′,12′-dimethyl-7′-(cis-5-(1-pyrrolidinyl)-1,3-dioxan-2-yl)-3,4-dihydro-2H,15′H-spiro[naphthalene-1,22′-[20]oxa[13]thia[1,14]diazatetracyclo [14.7.2.0~3,6~.0~19,24~]pentacosa[16,18,24]trien]-15′-one 13′,13′-dioxide]	0.444	65
